According to ChEMBL document CHEMBL1201862, “PubChem BioAssay data set” (2004):
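Five compound concentrations were applied to cells in 96-well plates for 48 hours; endpoints were derived by simple linear interpolation of the resulting dose-response curve. GI50 marks 50% less growth.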 The source made the active and inactive calls. No stated cut-off is given here; in the data, active = GI50 up to about 1.1 µM and inactive = higher.

Columns and labels:
Experiment in all cases: NCI-60 cell line screen, 48 h
HOP-62 = test system: HOP-62
Hs-578T = test system: Hs-578T
NCI-H23 = test system: NCI-H23
HT-29 = test system: HT-29
HL-60 = test system: HL-60
ACHN = test system: ACHN
CAKI-1 = test system: CAKI-1
BT-549 = test system: BT-549
SN12C = test system: SN12C
OVCAR-8 = test system: OVCAR-8
MDA-MB-231 = test system: MDA-MB-231
SK-OV-3 = test system: SK-OV-3
HCT-116 = test system: HCT-116
SF-539 = test system: SF-539
SW-620 = test system: SW-620
RPMI-8226 = test system: RPMI-8226
UACC-257 = test system: UACC-257
SK-MEL-5 = test system: SK-MEL-5
LOX IMVI = test system: LOX IMVI

Measured: GI50

O=C(Nc1cccc(Cl)c1)Nn1cnnc1
inactive: HOP-62 > 100 µM | Hs-578T > 100 µM | NCI-H23 > 100 µM | HT-29 > 100 µM | HL-60 66.5 µM | ACHN > 100 µM | CAKI-1 > 100 µM | BT-549 > 100 µM | SN12C > 100 µM | OVCAR-8 > 100 µM | MDA-MB-231 > 100 µM | SK-OV-3 > 100 µM | HCT-116 > 100 µM | SF-539 > 100 µM | SW-620 > 100 µM | RPMI-8226 > 100 µM | UACC-257 > 100 µM | SK-MEL-5 > 100 µM

N=C(N)N/N=C(/c1ccccc1)c1ccc(O)cc1O
inactive: HOP-62 32 µM | Hs-578T 22 µM | NCI-H23 31.8 µM | HT-29 19.7 µM | ACHN 45.9 µM | CAKI-1 51.5 µM | BT-549 37.5 µM | SN12C 29.4 µM | OVCAR-8 24.6 µM | MDA-MB-231 45.1 µM | SK-OV-3 33.4 µM | HCT-116 29 µM | SF-539 18.5 µM | SW-620 36.7 µM | RPMI-8226 30.5 µM | UACC-257 35.6 µM | SK-MEL-5 25.8 µM | LOX IMVI 34.9 µM

Cn1c(=O)c2ccccc2c2ccccc21
inactive: HOP-62 65.8 µM | Hs-578T 44.5 µM | NCI-H23 69.7 µM | HT-29 40.2 µM | ACHN 33 µM | CAKI-1 24.7 µM | BT-549 39.6 µM | SN12C 49.2 µM | OVCAR-8 45.9 µM | MDA-MB-231 56.6 µM | SK-OV-3 27.5 µM | HCT-116 45 µM | SF-539 38 µM | SW-620 45.2 µM | RPMI-8226 37.8 µM | UACC-257 81.1 µM | SK-MEL-5 30.3 µM | LOX IMVI 64.4 µM

N#CCCN(CCC#N)c1ccc(C(/N=N/c2ccc(Cl)cc2)=N\c2ccccc2)cc1
inactive: HOP-62 13.2 µM | Hs-578T 18.9 µM | NCI-H23 12.6 µM | HT-29 17.9 µM | ACHN 13.4 µM | CAKI-1 12.2 µM | BT-549 3.33 µM | SN12C 18.4 µM | OVCAR-8 15.1 µM | MDA-MB-231 18.1 µM | SK-OV-3 13.2 µM | HCT-116 12.1 µM | SF-539 14.9 µM | SW-620 18 µM | RPMI-8226 43.6 µM | UACC-257 7.83 µM | SK-MEL-5 1.24 µM

O=[N+]([O-])c1ccc2nc(O)n[n+]([O-])c2c1
inactive: HOP-62 > 100 µM | Hs-578T > 100 µM | NCI-H23 > 100 µM | HT-29 > 100 µM | HL-60 > 100 µM | ACHN > 100 µM | BT-549 > 100 µM | SN12C > 100 µM | OVCAR-8 > 100 µM | MDA-MB-231 > 100 µM | SK-OV-3 > 100 µM | HCT-116 > 100 µM | SF-539 > 100 µM | SW-620 > 100 µM | RPMI-8226 97.9 µM | UACC-257 > 100 µM | SK-MEL-5 > 100 µM | LOX IMVI > 100 µM

COC1(OC)CCc2c(sc3ncnc(Nc4cccc(Br)c4)c23)C1
inactive: HOP-62 74.5 µM | Hs-578T > 100 µM | NCI-H23 35.4 µM | HT-29 20 µM | ACHN 5.71 µM | CAKI-1 30.6 µM | BT-549 94.2 µM | SN12C 68.4 µM | OVCAR-8 34.6 µM | MDA-MB-231 49.5 µM | SK-OV-3 > 100 µM | HCT-116 39.3 µM | SF-539 > 100 µM | SW-620 21.7 µM | RPMI-8226 17 µM | UACC-257 87.3 µM | SK-MEL-5 30.9 µM | LOX IMVI 35.7 µM

CC1C=C(NCC2(CO)CCC2)N=C(N)N1 (centres undefined)
inactive: HOP-62 > 100 µM | Hs-578T > 100 µM | NCI-H23 > 100 µM | HT-29 > 100 µM | HL-60 > 100 µM | ACHN > 100 µM | CAKI-1 > 100 µM | BT-549 > 100 µM | SN12C > 100 µM | OVCAR-8 > 100 µM | MDA-MB-231 > 100 µM | SK-OV-3 > 100 µM | HCT-116 > 100 µM | SW-620 > 100 µM | RPMI-8226 > 100 µM | UACC-257 > 100 µM | SK-MEL-5 > 100 µM | LOX IMVI > 100 µM

Cc1c(C)c2c(c(N)c1C#N)C(=O)N(CCN1CCNCC1)C2=O
inactive: Hs-578T 28.8 µM | HL-60 28.4 µM | ACHN 25.6 µM | CAKI-1 42 µM | BT-549 35.2 µM | SN12C 32.5 µM | OVCAR-8 30.8 µM | MDA-MB-231 19.3 µM | HCT-116 16.1 µM | SF-539 32.8 µM | SW-620 31.6 µM | RPMI-8226 38 µM | UACC-257 37.7 µM | SK-MEL-5 > 10 µM | LOX IMVI 20.1 µM

Clc1ccc(C(OCn2ccnc2)c2nc3ccccc3[nH]2)c(Cl)c1 (centres undefined)
inactive: HOP-62 92.9 µM | Hs-578T 59.3 µM | NCI-H23 32.2 µM | HT-29 53.3 µM | HL-60 22.1 µM | ACHN 26.4 µM | CAKI-1 87.3 µM | BT-549 26.1 µM | SN12C 61.4 µM | OVCAR-8 52.8 µM | MDA-MB-231 84.5 µM | HCT-116 33.8 µM | SF-539 35.8 µM | SW-620 26.9 µM | RPMI-8226 24.6 µM | UACC-257 35.5 µM | SK-MEL-5 16.2 µM | LOX IMVI 32.4 µM

Cc1ccc([N+](=O)[O-])cc1S(=O)(=O)Nc1ccc(C2=NNC(c3ccccc3)C2)cc1 (centres undefined)
inactive: HOP-62 11.5 µM | Hs-578T 22.5 µM | NCI-H23 15.8 µM | HT-29 27.4 µM | HL-60 16.4 µM | ACHN 16.3 µM | CAKI-1 11.9 µM | BT-549 18.4 µM | SN12C 19.5 µM | OVCAR-8 26.2 µM | MDA-MB-231 15.3 µM | SK-OV-3 15.5 µM | HCT-116 13.1 µM | SF-539 28.1 µM | SW-620 25.4 µM | RPMI-8226 7.24 µM | UACC-257 15.8 µM | SK-MEL-5 14.7 µM

O=S(=O)(N/C(=N\O)Nc1ccc(Cl)cc1)c1ccc(S(=O)(=O)c2ccccc2)s1
inactive: HOP-62 26.5 µM | Hs-578T 28.6 µM | NCI-H23 17 µM | HT-29 22.3 µM | HL-60 27.4 µM | ACHN 20 µM | CAKI-1 21.4 µM | BT-549 15.4 µM | SN12C 17.4 µM | OVCAR-8 24.3 µM | MDA-MB-231 22.3 µM | HCT-116 16.7 µM | SF-539 24.5 µM | SW-620 30.1 µM | RPMI-8226 13.6 µM | UACC-257 16 µM | SK-MEL-5 11.2 µM | LOX IMVI 15.5 µM
